# ChEMBL document CHEMBL3885881, “DrugMatrix”
# Several values for one entry are separate records, joined by “and”; a condition that tells them apart may be missing. Identical values can stand only once.
# Species on record: Rattus norvegicus
# Assay: DrugMatrix - Regimen: Daily Repeat
# Type: toxicity, organism-based, Sprague-Dawley
# Design: regimen Daily Repeat, gender Male, age 6-8 weeks
# Details: in vivo, vehicle 100 % SALINE
# [1] = iv, 15 mg/kg, 72 h, tissue Plasma, dose level High, time 3 day
# [2] = iv, 15 mg/kg, 120 h, tissue Blood, dose level High, time 5 day
# [3] = iv, 15 mg/kg, 120 h, tissue Plasma, dose level High, time 5 day
# [4] = sc, 0 mg/kg, 72 h, tissue Blood, route mini-PUMP - SUBCUTANEOUS, dose level Control, time 3 day
# [5] = sc, 0 mg/kg, 72 h, tissue Plasma, route mini-PUMP - SUBCUTANEOUS, dose level Control, time 3 day
# [6] = sc, 0 mg/kg, 120 h, tissue Blood, route mini-PUMP - SUBCUTANEOUS, dose level Control, time 5 day
# [7] = sc, 0 mg/kg, 120 h, tissue Plasma, route mini-PUMP - SUBCUTANEOUS, dose level Control, time 5 day
structure (smiles),measurement,setting,value
CC(C)NCC(O)c1ccc(O)c(O)c1 (stereo not given) [ISOPROTERENOL],POTASSIUM,[1],6.86 MEQ/L
same,SODIUM,[1],146.03 MEQ/L
same,TOTAL BILIRUBIN,[1],0.13 mg/dL
same,TOTAL PROTEIN,[1],5.8 G/DL
same,URIC ACID,[1],1.53 mg/dL
same,ABSOLUTE BASOPHIL,[2],0 CELLS/uL
same,ABSOLUTE EOSINOPHIL,[2],89.33 CELLS/uL
same,ABSOLUTE LYMPHOCYTE,[2],14556.33 CELLS/uL
same,ABSOLUTE MONOCYTE,[2],270.67 CELLS/uL
same,ABSOLUTE SEGMENTED NEUTROPHIL,[2],850.33 CELLS/uL
same,BASOPHIL,[2],0%
same,EOSINOPHIL,[2],0.67%
same,ERYTHROCYTE COUNT,[2],5.8 x10E6/uL
same,HEMATOCRIT,[2],37.17%
same,HEMOGLOBIN,[2],13.6 G/DL
same,LEUKOCYTE COUNT,[2],15.77 x10E3/uL
same,LYMPHOCYTE,[2],92%
same,MEAN CORPUSCULAR HEMOGLOBIN,[2],23.53 pg
same,MEAN CORPUSCULAR HEMOGLOBIN CONCENTRATION,[2],36.7 G/DL
same,MEAN CORPUSCULAR VOLUME,[2],64.07 fL
same,MONOCYTE,[2],1.67%
same,NEUTROPHIL,[2],5.67%
same,NUCLEATED RED BLOOD CELLS,[2],0 /100WBC
same,PLATELET COUNT,[2],1301.33 x10E3/uL
same,ALANINE AMINOTRANSFERASE,[3],56 u/L
same,ALBUMIN,[3],4.03 G/DL
same,ALKALINE PHOSPHATASE,[3],369.67 u/L
same,ASPARTATE AMINOTRANSFERASE,[3],62.33 u/L
same,BLOOD UREA NITROGEN,[3],14.33 mg/dL
same,CARBON DIOXIDE,[3],30.33 mmol/L
same,CHLORIDE,[3],103.67 MEQ/L
same,CHOLESTEROL,[3],65.67 mg/dL
same,CREATINE PHOSPHOKINASE,[3],190.67 u/L
same,CREATININE,[3],0.23 mg/dL
same,GLUCOSE,[3],141 mg/dL
same,LACTATE DEHYDROGENASE,[3],80 u/L
same,LIPASE,[3],9 u/L
same,PHOSPHORUS,[3],11.63 mg/dL
same,POTASSIUM,[3],6.67 MEQ/L
same,SODIUM,[3],146.27 MEQ/L
same,TOTAL BILIRUBIN,[3],0.2 mg/dL
same,TOTAL PROTEIN,[3],6.13 G/DL
same,URIC ACID,[3],1.43 mg/dL
same,ABSOLUTE SEGMENTED NEUTROPHIL,[4],1658.33 CELLS/uL
same,BASOPHIL,[4],0.3% and 0%
same,EOSINOPHIL,[4],0.43% and 0.5%
same,ERYTHROCYTE COUNT,[4],6.91 x10E6/uL and 6.27 x10E6/uL
same,HEMATOCRIT,[4],45.43% and 36.95%
same,HEMOGLOBIN,[4],14.37 G/DL and 13.4 G/DL
same,LEUKOCYTE COUNT,[4],12.09 x10E3/uL and 16.38 x10E3/uL
same,LYMPHOCYTE,[4],81.73% and 87.17%
same,MEAN CORPUSCULAR HEMOGLOBIN,[4],20.8 pg and 21.42 pg
same,MEAN CORPUSCULAR HEMOGLOBIN CONCENTRATION,[4],31.67 G/DL and 36.27 G/DL
same,MEAN CORPUSCULAR VOLUME,[4],65.83 fL and 59.03 fL
same,MONOCYTE,[4],1.83% and 2%
same,NEUTROPHIL,[4],15.07% and 10.33%
same,NUCLEATED RED BLOOD CELLS,[4],0 /100WBC
same,PLATELET COUNT,[4],1299.67 x10E3/uL and 904.67 x10E3/uL
same,ALANINE AMINOTRANSFERASE,[5],34.33 u/L and 48.33 u/L
same,ALBUMIN,[5],3.83 G/DL and 3.82 G/DL
same,ALKALINE PHOSPHATASE,[5],333.67 u/L and 282.33 u/L
same,ASPARTATE AMINOTRANSFERASE,[5],68 u/L and 86.83 u/L
same,BLOOD UREA NITROGEN,[5],19.33 mg/dL and 20.17 mg/dL
same,CARBON DIOXIDE,[5],43 mmol/L and 34.67 mmol/L
same,CHLORIDE,[5],103.67 MEQ/L and 102 MEQ/L
same,CHOLESTEROL,[5],84.33 mg/dL and 71.5 mg/dL
same,CREATINE PHOSPHOKINASE,[5],334.33 u/L
same,CREATININE,[5],0.53 mg/dL and 0.2 mg/dL
same,GLUCOSE,[5],156.67 mg/dL and 136.83 mg/dL
same,LACTATE DEHYDROGENASE,[5],159 u/L
same,PHOSPHORUS,[5],9.8 mg/dL and 10.12 mg/dL
same,POTASSIUM,[5],5.93 MEQ/L and 5.92 MEQ/L
same,SODIUM,[5],146.33 MEQ/L and 147.8 MEQ/L
same,TOTAL BILIRUBIN,[5],0.37 mg/dL and 0.2 mg/dL
same,TOTAL PROTEIN,[5],6.4 G/DL and 6.05 G/DL
same,URIC ACID,[5],0.73 mg/dL and 1.4 mg/dL
same,ABSOLUTE SEGMENTED NEUTROPHIL,[6],3216.67 CELLS/uL
same,BASOPHIL,[6],0.2% and 0%
same,EOSINOPHIL,[6],0.33% and 0%
same,ERYTHROCYTE COUNT,[6],6.81 x10E6/uL and 6.11 x10E6/uL
same,HEMATOCRIT,[6],44.33% and 36.22%
same,HEMOGLOBIN,[6],13.77 G/DL and 13.18 G/DL
same,LEUKOCYTE COUNT,[6],11.2 x10E3/uL and 17.8 x10E3/uL
same,LYMPHOCYTE,[6],80.33% and 80.5%
same,MEAN CORPUSCULAR HEMOGLOBIN,[6],20.23 pg and 21.62 pg
same,MEAN CORPUSCULAR HEMOGLOBIN CONCENTRATION,[6],31.03 G/DL and 36.42 G/DL
same,MEAN CORPUSCULAR VOLUME,[6],65.1 fL and 59.37 fL
same,MONOCYTE,[6],2.1% and 1.83%
same,NEUTROPHIL,[6],16.43% and 17.67%
same,NUCLEATED RED BLOOD CELLS,[6],0 /100WBC
same,PLATELET COUNT,[6],1573.33 x10E3/uL and 1311 x10E3/uL
same,ALANINE AMINOTRANSFERASE,[7],38 u/L and 47 u/L
same,ALBUMIN,[7],3.87 G/DL and 3.83 G/DL
same,ALKALINE PHOSPHATASE,[7],303.67 u/L and 260.33 u/L
same,ASPARTATE AMINOTRANSFERASE,[7],72.67 u/L and 76.17 u/L
same,BLOOD UREA NITROGEN,[7],17.33 mg/dL and 14.67 mg/dL
same,CARBON DIOXIDE,[7],41.33 mmol/L and 31.33 mmol/L
same,CHLORIDE,[7],104.33 MEQ/L and 101.17 MEQ/L
same,CHOLESTEROL,[7],74.33 mg/dL and 75 mg/dL
same,CREATINE PHOSPHOKINASE,[7],286.67 u/L
same,CREATININE,[7],0.47 mg/dL and 0.16 mg/dL
same,GLUCOSE,[7],152.33 mg/dL and 152.67 mg/dL
same,LACTATE DEHYDROGENASE,[7],147.33 u/L
same,PHOSPHORUS,[7],10 mg/dL and 10.97 mg/dL
same,POTASSIUM,[7],6.4 MEQ/L and 6 MEQ/L
same,SODIUM,[7],146 MEQ/L and 145.52 MEQ/L
same,TOTAL BILIRUBIN,[7],0.43 mg/dL and 0.17 mg/dL
same,TOTAL PROTEIN,[7],6.27 G/DL and 5.83 G/DL
same,URIC ACID,[7],0.83 mg/dL and 1.27 mg/dL
same,ABSOLUTE SEGMENTED NEUTROPHIL,"sc, 0 mg/kg, […], tissue Blood, route mini-PUMP - SUBCUTANEOUS, dose level Control, time 14 day",2414 CELLS/uL
